# Experimental data: publication PMC11079024, “Identification of a family of species-selective complex I inhibitors as potential anthelmintics” (Nature Communications, 2024)
# pIC50: −log10 of the molar value. Several values for one entry are separate records, joined by “and”; a condition that tells them apart may be missing. Equal values may be shown once. Read-outs that look alike come from different tables or passages of the source.
# Target: M. musculus (heart) complex I (Mus musculus, UniProt P03888+Q91WD5+Q9DC70)
# Sequence (Q91WD5 34-463): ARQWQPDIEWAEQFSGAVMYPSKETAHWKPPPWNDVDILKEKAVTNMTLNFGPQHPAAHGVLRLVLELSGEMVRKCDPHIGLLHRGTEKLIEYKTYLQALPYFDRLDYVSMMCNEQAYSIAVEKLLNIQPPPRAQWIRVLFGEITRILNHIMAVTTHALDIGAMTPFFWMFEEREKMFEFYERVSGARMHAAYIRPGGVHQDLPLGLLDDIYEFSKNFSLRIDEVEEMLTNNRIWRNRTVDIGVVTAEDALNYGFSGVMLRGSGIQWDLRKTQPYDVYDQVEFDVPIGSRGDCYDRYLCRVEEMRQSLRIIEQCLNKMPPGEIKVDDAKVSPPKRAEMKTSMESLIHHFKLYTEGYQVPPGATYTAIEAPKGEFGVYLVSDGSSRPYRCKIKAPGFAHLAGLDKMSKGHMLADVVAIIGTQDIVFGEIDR
# Sequence (Q9DC70 36-224): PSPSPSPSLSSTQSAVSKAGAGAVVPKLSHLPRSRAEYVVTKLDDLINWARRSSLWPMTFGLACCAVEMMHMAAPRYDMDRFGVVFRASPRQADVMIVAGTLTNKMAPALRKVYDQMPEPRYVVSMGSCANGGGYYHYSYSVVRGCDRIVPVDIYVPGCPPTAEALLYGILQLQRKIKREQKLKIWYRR
# Sequence (P03888 whole entry): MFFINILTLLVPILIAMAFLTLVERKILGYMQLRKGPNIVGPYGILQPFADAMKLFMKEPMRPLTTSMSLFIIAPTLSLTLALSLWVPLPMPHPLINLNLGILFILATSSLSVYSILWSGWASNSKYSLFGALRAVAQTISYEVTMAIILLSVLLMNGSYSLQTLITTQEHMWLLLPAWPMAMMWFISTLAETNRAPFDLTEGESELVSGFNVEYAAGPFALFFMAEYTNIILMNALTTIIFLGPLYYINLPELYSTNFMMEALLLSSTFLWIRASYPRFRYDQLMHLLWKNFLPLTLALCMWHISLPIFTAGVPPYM
# Assay: biochemical
# Type: biochemical
# Set-up: Complex I activity, dose-response data: unit not given here
# Settings: for pIC50: heart mitochondria; for activity at 0.0001 µM / Complex I activity, dose-response data / activity at 0.0005 µM / activity at 0.001 µM / activity at 0.0025 µM / activity at 0.005 µM / activity at 0.013 µM / activity at 0.025 µM / activity at 0.063 µM / activity at 0.125 µM / activity at 0.313 µM / activity at 0.625 µM / activity at 1.5 µM / activity at 3 µM / activity at 15 µM / activity at 37.5 µM / activity at 75 µM: M. musculus; for activity at 0.0001 µM / activity at 0.0005 µM / activity at 0.001 µM / activity at 0.0025 µM / activity at 0.005 µM / activity at 0.013 µM / activity at 0.025 µM / activity at 0.063 µM / activity at 0.125 µM / activity at 0.313 µM / activity at 0.625 µM / activity at 1.5 µM / activity at 3 µM / activity at 15 µM / activity at 37.5 µM / activity at 75 µM: read-out: Complex I activity, dose-response data
# Description: Six 8–10-week-old C57Bl/6 female mice (Charles River) were freshly dissected, and their livers and hearts collected into separate 1.5 mL microcentrifuge tubes. Organs were flash-frozen in liquid nitrogen and stored at −80 °C prior to use. The heart of a freshly slaughtered adult cow was obtained from a local abattoir (Peel Sausage Inc.), chopped into ~1-inch cubes and collected into 50 mL falcon tubes. Falcon tubes were flash-frozen in a container of dry ice and stored at −80 °C prior to use. Isolation of mitochondria from all mammalian tissue was carried out following the protocol described above. However, due to size, the initial homogenization of tissue was performed by 15 strokes in a dounce homogenizer (mouse heart) or with several 5 s pulses in small Nutribullet blender (cow heart). All mouse protocols for mouse care and dissection were reviewed and approved by the University of Toronto Animal Care Committee, in accordance with the Canadian Council on Animal Care.
# The enzymatic activities of individual ETC complexes (I-IV) were assessed spectrophotometrically in isolated mitochondria using a Varioskan LUX Multimode plate reader (ThermoFisher Scientific). Mitochondrial pellets previously isolated were thawed on ice and resuspended in ice-cold isolation buffer (250 mM sucrose, 10 mM Tris (pH 7.5), 1 mM EDTA). The BCA assay (Walker, 1994) was used to quantify the protein concentration of mitochondria suspensions; solutions were diluted to a concentration of 0.2 mg/mL for use in all assays. For the complex I assay, mitochondria pellets were freeze-thawed on ice three times to increase enzyme accessibility. […] 20 μL mitochondria suspension was then added/mixed with a pipette to initiate the reaction. Immediately following the addition of mitochondria, absorbance was measured (complex I and II: 600 nm; complex III and IV: 550 nm) in 30 s intervals over 15 min. Enzymatic activity was determined in each reaction by plotting absorbance versus time and calculating the slope of the curve during the initial linear phase of the reaction. […] Percent activity of each complex was calculated by dividing the enzyme-specific activity of each well by the enzyme-specific activity of the corresponding solvent controls.
# Chemical solutions were prepared in complex I assay buffer composed of 25 mM KPi buffer (pH 7.5), 3 mg/mL bovine serum albumin (BSA), 80 μM NADH, 60 μM decylubiquinone, 160 μM DCIP, 2 μM antimycin A and 2 mM KCN.
# For preliminary screens of hit compounds, compounds were screened at 100 μM; data are the average of at least three biological replicates. The complex I and II activity assays were used for additional dose-response experiments. […] For dose responses of benzimidazole analogs, data represent the average of two biological replicates. For all other dose-responses, data represent the average of at least three biological replicates.
# [1] = dose 0.0001 µM, Mean of replicates
# [2] = dose 0.0001 µM, individual replicates (Rep)
# [3] = dose 0.0005 µM, Mean of replicates
# [4] = dose 0.0005 µM, individual replicates (Rep)
# [5] = dose 0.001 µM, Mean of replicates
# [6] = dose 0.001 µM, individual replicates (Rep)
# [7] = dose 0.0025 µM, Mean of replicates
# [8] = dose 0.0025 µM, individual replicates (Rep)
# [9] = dose 0.005 µM, Mean of replicates
# [10] = dose 0.005 µM, individual replicates (Rep)
# [11] = dose 0.013 µM, Mean of replicates
# [12] = dose 0.013 µM, individual replicates (Rep)
# [13] = dose 0.025 µM, Mean of replicates
# [14] = dose 0.025 µM, individual replicates (Rep)
# [15] = dose 0.063 µM, Mean of replicates
# [16] = dose 0.063 µM, individual replicates (Rep)
# [17] = dose 0.125 µM, Mean of replicates
# [18] = dose 0.125 µM, individual replicates (Rep)
# [19] = dose 0.313 µM, Mean of replicates
# [20] = dose 0.313 µM, individual replicates (Rep)
# [21] = dose 0.625 µM, Mean of replicates
# [22] = dose 0.625 µM, individual replicates (Rep)
# [23] = dose 1.5 µM, Mean of replicates
# [24] = dose 1.5 µM, individual replicates (Rep)
# [25] = dose 3 µM, individual replicates (Rep)
# [26] = dose 15 µM, individual replicates (Rep)
# [27] = dose 37.5 µM, Mean of replicates
# [28] = dose 37.5 µM, individual replicates (Rep)
# [29] = dose 75 µM, individual replicates (Rep)
compound,measurement,setting,value
"CC(C)(C)c1ccc(CCOc2ncnc3ccccc23)cc1 [Fenazaquin, reference compound]",pIC50,,7.68
COc1cc2c(cc1OC)C(c1ccc(-c3ccc(Cl)c(Cl)c3)o1)=NCC2 [NPD3577],activity at 0.0001 µM,[1],99.3%
same,"Complex I activity, dose-response data",[2],99.760 and 97.530 and 100.984
same,activity at 0.0001 µM,[2],98.7%
same,activity at 0.0005 µM,[3],99.8%
same,"Complex I activity, dose-response data",[4],100.720 and 95.586 and 99.617
same,activity at 0.0005 µM,[4],103%
same,activity at 0.001 µM,[5],103%
same,"Complex I activity, dose-response data",[6],108.824 and 94.850 and 104.918
same,activity at 0.001 µM,[6],104%
same,activity at 0.0025 µM,[7],107%
same,"Complex I activity, dose-response data",[8],111.585 and 102.733 and 109.563
same,activity at 0.0025 µM,[8],103%
same,activity at 0.005 µM,[9],107%
same,"Complex I activity, dose-response data",[10],112.125 and 100.788 and 103.716
same,activity at 0.005 µM,[10],109%
same,activity at 0.013 µM,[11],104%
same,"Complex I activity, dose-response data",[12],108.043 and 100.788 and 100.055
same,activity at 0.013 µM,[12],107%
same,activity at 0.025 µM,[13],107%
same,"Complex I activity, dose-response data",[14],126.379 and 112.185 and 93.904 and 97.158
same,activity at 0.063 µM,[15],100%
same,"Complex I activity, dose-response data",[16],110.072 and 110.684 and 90.068 and 89.235
same,activity at 0.125 µM,[17],96.8%
same,"Complex I activity, dose-response data",[18],107.614 and 105.282 and 84.971 and 89.399
same,activity at 0.313 µM,[19],197%
same,"Complex I activity, dose-response data",[20],207.614 and 205.282 and 184.971 and 189.399
same,activity at 0.625 µM,[21],297%
same,"Complex I activity, dose-response data",[22],307.614 and 305.282 and 284.971 and 289.399
same,activity at 1.5 µM,[23],397%
same,"Complex I activity, dose-response data",[24],407.614 and 405.282 and 384.971 and 389.399
same,activity at 3 µM,"dose 3 µM, Mean of replicates",97.4%
same,"Complex I activity, dose-response data",[25],96.485 and 88.056 and 108.623 and 96.419
same,activity at 15 µM,"dose 15 µM, Mean of replicates",81.9%
same,"Complex I activity, dose-response data",[26],74.817 and 86.108 and 83.789
same,activity at 15 µM,[26],82.8%
same,activity at 37.5 µM,[27],55.4%
same,"Complex I activity, dose-response data",[28],57.697 and 52.394 and 66.227 and 45.378
same,activity at 75 µM,"dose 75 µM, Mean of replicates",50.2%
same,"Complex I activity, dose-response data",[29],47.944 and 55.928 and 45.443
same,activity at 75 µM,[29],51.4%
same,pIC50,,4.73
COc1cc2c(cc1OC)C(/C=C/c1ccc(N(C)C)cc1)=NCC2 [NPD6303],activity at 0.0001 µM,[1],101%
same,"Complex I activity, dose-response data",[2],95.113 and 105.612 and 100.336
same,activity at 0.0001 µM,[2],101%
same,activity at 0.0005 µM,[3],103%
same,"Complex I activity, dose-response data",[4],98.745 and 107.836 and 100.101
same,activity at 0.0005 µM,[4],104%
same,activity at 0.001 µM,[5],104%
same,"Complex I activity, dose-response data",[6],97.287 and 111.616 and 104.649
same,activity at 0.001 µM,[6],101%
same,activity at 0.0025 µM,[7],105%
same,"Complex I activity, dose-response data",[8],102.935 and 109.008 and 106.731
same,activity at 0.0025 µM,[8],103%
same,activity at 0.005 µM,[9],104%
same,"Complex I activity, dose-response data",[10],104.920 and 109.298 and 99.669
same,activity at 0.005 µM,[10],102%
same,activity at 0.013 µM,[11],106%
same,"Complex I activity, dose-response data",[12],109.789 and 107.516 and 104.172
same,activity at 0.013 µM,[12],104%
same,activity at 0.025 µM,[13],104%
same,"Complex I activity, dose-response data",[14],102.950 and 107.489 and 103.259
same,activity at 0.025 µM,[14],103%
same,activity at 0.063 µM,[15],106%
same,"Complex I activity, dose-response data",[16],109.017 and 105.796 and 103.155
same,activity at 0.063 µM,[16],107%
same,activity at 0.125 µM,[17],104%
same,"Complex I activity, dose-response data",[18],107.003 and 106.214 and 101.940
same,activity at 0.125 µM,[18],102%
same,activity at 0.313 µM,[19],204%
same,"Complex I activity, dose-response data",[20],207.003 and 206.214 and 201.940
same,activity at 0.313 µM,[20],202%
same,activity at 0.625 µM,[21],304%
same,"Complex I activity, dose-response data",[22],307.003 and 306.214 and 301.940
same,activity at 0.625 µM,[22],302%
same,activity at 1.5 µM,[23],404%
same,"Complex I activity, dose-response data",[24],407.003 and 406.214 and 401.940
same,activity at 1.5 µM,[24],402%
same,activity at 3 µM,"dose 3 µM, Mean of replicates",98.6%
same,"Complex I activity, dose-response data",[25],93.765 and 96.975 and 100.381
same,activity at 3 µM,[25],103%
same,activity at 15 µM,"dose 15 µM, Mean of replicates",80.3%
same,"Complex I activity, dose-response data",[26],83.390 and 75.202 and 80.206
same,activity at 15 µM,[26],82.4%
same,activity at 37.5 µM,[27],54.3%
same,"Complex I activity, dose-response data",[28],55.014 and 49.927 and 52.999
same,activity at 37.5 µM,[28],59.2%
same,activity at 75 µM,"dose 75 µM, Mean of replicates",38.9%
same,"Complex I activity, dose-response data",[29],39.690 and 34.902 and 38.927
same,activity at 75 µM,[29],41.9%
same,pIC50,,4.46
